Experimental data reported in patent US5371096A, “(3-pyridyl)tetrafuran-2-yl substituted carboxylic acids” (Ciba-Geigy Corporation, priority 1993, dated 1994).

Assays:
thromboxane-A2 receptor [1] = biological target: T1, thromboxane-A2 receptor (Homo sapiens, UniProt P21731); assay: inhibition of U-46619 induced aggregation in human platelet rich plasma; format: cell-based; details: in vitro
T1 sequence (P21731 1-343): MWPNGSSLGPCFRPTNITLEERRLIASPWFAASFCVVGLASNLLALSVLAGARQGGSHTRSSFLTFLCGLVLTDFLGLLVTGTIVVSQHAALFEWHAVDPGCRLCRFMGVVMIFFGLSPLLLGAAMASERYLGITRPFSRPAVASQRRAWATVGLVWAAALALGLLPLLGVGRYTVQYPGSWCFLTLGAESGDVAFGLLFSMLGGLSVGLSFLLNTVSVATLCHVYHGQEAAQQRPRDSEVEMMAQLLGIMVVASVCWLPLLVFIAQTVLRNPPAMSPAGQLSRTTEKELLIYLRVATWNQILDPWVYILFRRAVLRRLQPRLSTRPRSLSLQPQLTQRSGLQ
Description: (§1) The inhibition of thromboxane-A2 receptor activity is determined by measuring the inhibition of U-46619 induced platelet aggregation of aspirinated human washed platelets and in human platelet rich plasma. U-46619 is (15S)-hydroxy-11-α,9-α(epoxymethanol)-prosta-(5Z,13E)-dienoic acid, a throm boxane-A2 receptor agonist, as described by Di Minno et at, Thromb. Haemost. 45, 103 (1981).
(§2) Such inhibition of platelet aggregation is determined using methodology known in the art, e.g. in vitro in the presence of a compound of the invention in human platelet rich plasma, or by measuring the inhibition of aggregation seen in plasma obtained from a mammal previously administered a compound of the invention, e.g. orally or intravenously when compared to controls. Platelet aggregation is measured in a Born aggregometer and platelet rich plasma is prepared from venous blood e.g. as described in Br. J. Haematol. 43, 637 (1979). Suitable test animals are anesthetized rats or guinea pigs and unanesthetized rabbits or cyanomolgus monkeys.

[2] = test system: U46619-induced platelet aggregation; assay: inhibition of U46619-induced platelet aggregation after oral dosing in guinea pigs; format: in vivo, guinea pig
Description: as §2

[3] = test system: U46619-induced ex vivo platelet aggregation; assay: U46619-induced ex vivo platelet aggregation after oral dosing in cyanomolgus monkeys; design: species or system cyanomolgus monkey; details: 30 mg/kg
Description: as §2

thromboxane synthetase = assay: serum thromboxane B2, 6-keto-PGF1α and PGE2 levels after oral dosing in cyanomolgus monkeys; format: in vivo, cyanomolgus monkey; details: 30 mg/kg
thromboxane-A2 receptor [4] = biological target: T1, thromboxane-A2 receptor; assay: inhibition of U-46619-induced aggregation of aspirinated washed human platelets; format: cell-based; design: U-46619 induced platelet aggregation of aspirinated human washed platelets and in human platelet rich plasma; endogenous in cells; host or cells: human platelets (aspirinated washed platelets in A1; platelet rich plasma in A2); details: in vitro
Description: Acad. Sci. 76, 4097 (1979).
as §1

[5] = concomitant with serum thromboxane B2 inhibition

SMILES | IC50 (thromboxane-A2 receptor [1]) [nM] | inhibition of U46619-induced platelet aggregation 1 hour post dose ([2]; conscious guinea pigs, oral, 0.3 mg/kg, 1 hour post dose) | increase of the concentration of thromboxane-mimetic required to induce 50% maximal aggregation ([2]; guinea pigs, oral dose of 0.23 mg/kg) [fold] | duration of total inhibition of U46619-induced ex vivo platelet aggregation [3] | time of return of ex vivo platelet aggregation to predose values [3] [h] | inhibition of U46619-induced ex vivo platelet aggregation ([3]; for at least 8 hours) | duration of inhibition of serum thromboxane B2 (thromboxane synthetase) [h] | 6-keto-PGF1α level (thromboxane synthetase; [5]) | PGE2 level (thromboxane synthetase; [5]) | IC50 (thromboxane-A2 receptor [4]) [nM]
O=C(O)CC/C=C\CC[C@@H]1[C@@H](OCc2ccc(-c3ccccc3)cc2)CO[C@@H]1c1cccnc1 [Example 1, (Z)-(2S,3S,4R)-7-[4-(1,1'-biphenyl-4-ylmethoxy)-2-(3-pyridyl)tetrahydrofuran-3-yl]-4-heptenoic acid] | 250 | effectively inhibits | 50 | at least 8 hours | 24 | totally inhibited | 24 | elevations | elevations | 26.5
O=C(O)CCC=CCCC1C(OCc2ccc(-c3ccccc3)cc2)COC1c1cccnc1 (stereo not drawn) [Example 8(a), (Z)-(2α,3β,4β)-7-[4-(biphenyl-4-yl-methoxy)-2-(3-pyridyl)tetrahydrofuran-3-yl)hept-4-enoic acid] | ~400 | – | – | – | – | – | – | – | – | 28
